The source of these data is EP2242752B1, “[…] IMIDAZOLES AS HEPATITIS C VIRUS INHIBITORS” (Bristol-Myers Squibb Company, priority 2008, dated 2009).

The subject of this assay is HCV 1b genotype. Put plainly: HCV Replicon assay (HCV 16-377-neo replicon cells). The format is cell-based. The conditions noted are these: Hepatitis C virus; HCV 1b genotype replicon cells; read-out: EC50 ranges against HCV 1b. An outline of the steps:
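Inhibition measured in HCV 16-377-neo replicon cells, alongside replicon cells carrying the NS5A Y2065H resistance mutation.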
In general terms: A replicon is a self-replicating genome or part of one, used to study replication in cells.
In the case of `COC(=O)N[C@@H](C(=O)N1[C@@H]2C[C@@H]2C[C@H]1c1nc(-c2ccc(-c3ccc(-c4c[nH]c([C@@H]5C[C@H]6C[C@H]6N5C(=O)[C@H](NC(=O)OC)C(C)C)n4)cc3)cc2)c[nH]1)C(C)C` [Example M136, methyl ((1R)-1-(((1R,3S,5R)-3-(4-(4'-(2-((1R,3S,5R)-2-((2R)-2-((methoxycarbonyl)amino)-3-methylbutanoyl)-2-azabicyclo[3.1.0]hex-3-yl)-1H-imidazol-4-yl)-4-biphenylyl)-1H-imidazol-2-yl)-2-azabicyclo[3.1.0]hex-2-yl)carbonyl)-2-methylpropyl)carbamate], the EC50 is 1 to 99 nM. As for `COC(=O)N[C@H](C(=O)N1[C@@H]2C[C@@H]2C[C@H]1c1ncc(-c2ccc(-c3ccc(-c4cnc([C@@H]5C[C@H]6C[C@H]6N5C(=O)CCCC[C@@H]5SC[C@@H]6NC(=O)N[C@@H]65)[nH]4)cc3)cc2)[nH]1)C(C)C` [Example M139], the EC50 lay in the range of 0.001 to 0.999 nM. Then `CC(=O)N[C@H](C(=O)N1[C@@H]2C[C@@H]2C[C@H]1c1ncc(-c2ccc(-c3ccc(-c4cnc([C@@H]5C[C@H]6C[C@H]6N5C(=O)[C@@H](NC(C)=O)C(C)C)[nH]4)cc3)cc2)[nH]1)C(C)C` [Example M140, N((1S)-1-(((1R,3S,SR)-3-(4-(4'-(2-((1R,3S,SR)-2-((2S)-2-acetamido-3-methylbutanoyl)-2-azabicyclo[3.1.0]hex-3-yl)-1H-imidazol-4-yl)-4-biphenylyl)-1H imidazol-2-yl)-2-azabicyclo[3.1.0]hex-2-yl)carbonyl)-2-methylpropyl)acetamide], with 0.001 to 0.999 nM; and `CC(C)[C@H](N)C(=O)N1[C@@H]2C[C@@H]2C[C@H]1c1nc(-c2ccc(-c3ccc(-c4cnc([C@@H]5C[C@H]6C[C@H]6N5C(=O)[C@@H](N)C(C)C)[nH]4)cc3)cc2)c[nH]1` [Example M140a-i, (2S)-1-((1R,3S,5R)-3-(4-(4'-(2-((1R,3S,5R)-2-((2S)-2-amino-3-methylbutanoyl)-2-azabicyclo[3.1.0]hex-3-yl)-1H-imidazol-5-yl)-4-biphenylyl)-1H-imidazol-2-yl)-2-azabicyclo[3.1.0]hex-2-yl)-3-methyl-1-oxo-2-butanamine], with 1 to 99 nM. For `CC(C)[C@H](N)C(=O)N1[C@@H]2C[C@@H]2C[C@H]1c1ncc(-c2ccc(-c3ccc(-c4cnc([C@@H]5C[C@H]6C[C@H]6N5C(=O)[C@@H](N)C(C)C)[nH]4)cc3)cc2)[nH]1` [Example M140a-ii] the value was 1 to 99 nM; for `CC(C)[C@H](NC(=O)C1CC1)C(=O)N1[C@@H]2C[C@@H]2C[C@H]1c1ncc(-c2ccc(-c3ccc(-c4cnc([C@@H]5C[C@H]6C[C@H]6N5C(=O)[C@@H](NC(=O)C5CC5)C(C)C)[nH]4)cc3)cc2)[nH]1` [Example M141, N((1S)-1-(((1R,3S,SR)-3-(4-(4'-(2-((1R,3S,SR)-2-((2S)-2-((cyclopropylcarbonyl)amino)-3-methylbutanoyl)-2-azabicyclo[3.1.0]hex-3-yl)-1H imidazol-4-y/)-4-biphenyly/)-1H-imidazol-2-yl)-2-azabicyclo[3.1. 0]hex-2-yl)carbonyl)-2-methylpropyl)cyclopropanecarbamate], 1 to 99 nM. Regarding `CC(C)[C@@H](NC(=O)OC(C)(C)C)C(=O)N1[C@@H]2C[C@@H]2C[C@H]1c1nc(-c2ccc(-c3ccc(-c4c[nH]c([C@@H]5C[C@H]6C[C@H]6N5C(=O)[C@H](NC(=O)OC(C)(C)C)C(C)C)n4)cc3)cc2)c[nH]1` [Example M142, tert-butyl ((1R)-1-(((1R,3S,5R)-3-(4-(4'-(2-((1R,3S,5R)-2-((2R)-2-((tert-butoxycarbonyl)amino)-3-methylbutanoyl)-2-azabicyclo[3.1.0]hex-3-yl)-1H-imidazol-4-yl)-4-biphenylyl)-1H-imidazol-2-yl)-2-azabic yclo[3.1.0]hex-2-yl)carbonyl)-2-methylpropyl)carbamate], the EC50 was 1 to 99 nM. In the case of `CC(C)[C@H](Nc1ncccn1)C(=O)N1[C@@H]2C[C@@H]2C[C@H]1c1ncc(-c2ccc(-c3ccc(-c4cnc([C@@H]5C[C@H]6C[C@H]6N5C(=O)[C@@H](Nc5ncccn5)C(C)C)[nH]4)cc3)cc2)[nH]1` [Example M144, N,N'-(4,4'-biphenyldiylbis(1H-imidazole-4,2-diyl(1R,3S,5R)-2-azabicyclo[3.1.0]hexane-3,2-diyl((2S)-3-methyl-1-oxo-1, -butanediyl)))di(2-pyrimidinamine)], the EC50 was in the range of 0.001 to 0.999 nM. For `COC(=O)N[C@H](C(=O)N1CC2(CC2)C[C@H]1c1nc(-c2ccc(-c3ccc(-c4c[nH]c([C@@H]5CC6(CC6)CN5C(=O)[C@@H](NC(=O)OC)C(C)C)n4)cc3)cc2)c[nH]1)C(C)C` [Example M145, methyl ((1S)-1-(((6S)-6-(4-(4'-(2-((6S)-5-((2S)-2-((methoxycarbonyl)amino)-3-methylbutanoyl)-5-azaspiro[2.4]hept-6-yl)-1H-imidazol-4-yl)-4-biphenylyl)-1H-imidazol-2-yl)-5-azaspiro[2.4]hept-5-yl)carbonyl)-2-methylpropyl)carbamate] the value was 0.001 to 0.999 nM; for `COC(=O)NCC(=O)N1CC2(CC2)C[C@H]1c1nc(-c2ccc(-c3ccc(-c4c[nH]c([C@@H]5CC6(CC6)CN5C(=O)CNC(=O)OC)n4)cc3)cc2)c[nH]1` [Example M146, methyl (2-((6S)-6-(4-(4'-(2-((6S)-5-(((methoxycarbonyl)amino)acetyl)-5-azaspiro[2.4]hept-6-yl)-1H-imidazol-4-yl)-4-biphenylyl)-1H-imidazol-2-yl)-5-azaspiro[2.4]hept-5-yl)-2-oxoethyl)carbamate], 0.001 to 0.999 nM; for `COC(=O)N[C@@H](C)C(=O)N1CC2(CC2)C[C@H]1c1nc(-c2ccc(-c3ccc(-c4c[nH]c([C@@H]5CC6(CC6)CN5C(=O)[C@H](C)NC(=O)OC)n4)cc3)cc2)c[nH]1` [Example M147, methyl ((1S)-2-((6S)-6-(4-(4'-(2-((6S)-5-(N-(methoxycarbonyl)-L-alanyl)-5-azaspiro[2.4]hept-6-yl)-1H-imidazol-4-yl)-4-biphenylyl)-1H-imidazol-2-yl)-5-azaspiro[2.4]hept-5-yl)-1-methyl-2-oxoethyl)carbam ate], 0.001 to 0.999 nM. On to `CC[C@H](NC(=O)OC)C(=O)N1CC2(CC2)C[C@H]1c1nc(-c2ccc(-c3ccc(-c4c[nH]c([C@@H]5CC6(CC6)CN5C(=O)[C@H](CC)NC(=O)OC)n4)cc3)cc2)c[nH]1` [Example M148, dimethyl (4,4'-biphenyldiylbis(1H-imidazole-4,2-diyl(6S)-5-azaspiro[2.4]heptane-6,5-diyl((2S)-1-oxo-1,2-butanediyl)))biscarbamate], for which the EC50 was 0.001 to 0.999 nM. For `COC(=O)N[C@@H](C(=O)N1CC2(CC2)C[C@H]1c1nc(-c2ccc(-c3ccc(-c4c[nH]c([C@@H]5CC6(CC6)CN5C(=O)[C@H](NC(=O)OC)C(C)C)n4)cc3)cc2)c[nH]1)C(C)C` [Example M149, methyl ((1R)-1-(((6S)-6-(4-(4'-(2-((6S)-5-((2R)-2-((methoxycarbonyl)amino)-3-methylbutanoyl)-5-azaspiro[2.4]hept-6-yl)-1H-imidazol-4-yl)-4-biphenylyl)-1H-imidazol-2-yl)-5-azaspiro[2.4]hept-5-yl)carbonyl)-2-methylpropyl)carbamate] the value was 1 to 99 nM; for `COC(=O)N[C@@H](C(=O)N1CC2(CC2)C[C@H]1c1nc(-c2ccc(-c3ccc(-c4c[nH]c([C@@H]5CC6(CC6)CN5C(=O)[C@H](NC(=O)OC)c5ccccc5)n4)cc3)cc2)c[nH]1)c1ccccc1` [Example M150, dimethyl (4,4'-biphenyldiylbis(1H-imidazole-4,2-diyl(6S)-5-azaspiro[2.4]heptane-6,5-diyl((1R)-2-oxo-1-phenyl-2,1-ethanediyl)))biscarbamate], 0.001 to 0.999 nM; for `COC(=O)N[C@H](C(=O)N1[C@@H](C)CC[C@H]1c1nc(-c2ccc(-c3ccc(-c4c[nH]c([C@@H]5CC[C@H](C)N5C(=O)[C@@H](NC(=O)OC)C(C)C)n4)cc3)cc2)c[nH]1)C(C)C` [Example M151, methyl ((1S)-1-(((2S,5S)-2-(4-(4'-(2-((2S,5S)-1-((2S)-2-((methoxycarbonyl)amino)-3-methylbutanoyl)-5-methyl-2-pyrrolidinyl)-1H-imidazol-4-yl)-4-biphenylyl)-1H-imidazol-2-yl)-5-methyl-1-pyrrolidinyl)carbonyl)-2-methylpropyl)carbamate], 0.001 to 0.999 nM.

With `COC(=O)N[C@@H](C(=O)N1[C@@H](C)CC[C@H]1c1nc(-c2ccc(-c3ccc(-c4c[nH]c([C@@H]5CC[C@H](C)N5C(=O)[C@H](NC(=O)OC)c5ccccc5)n4)cc3)cc2)c[nH]1)c1ccccc1` [Example M153, dimethyl (4,4'-biphenyldiylbis(1H-imidazole-4,2-diyl((2S,5S)-5-methyl-2,1-pyrrolidinediyl)((1R)-2-oxo-1-phenyl-2,1-ethanediyl)))biscarbamate], the EC50 is 0.001 to 0.999 nM. Then `CC[C@H](NC(=O)OC)C(=O)N1[C@@H](C)CC[C@H]1c1nc(-c2ccc(-c3ccc(-c4c[nH]c([C@@H]5CC[C@H](C)N5C(=O)[C@H](CC)NC(=O)OC)n4)cc3)cc2)c[nH]1` [Example M154, dimethyl (4,4'-biphenyldiylbis(1H-imidazole-4,2-diyl((2S,5S)-5-methyl-2,1-pyrrolidinediyl)((2S)-1-oxo-1,2-butanediyl)))biscarbamate], with 0.001 to 0.999 nM; and `COC(=O)NCC(=O)N1[C@@H](C)CC[C@H]1c1nc(-c2ccc(-c3ccc(-c4c[nH]c([C@@H]5CC[C@H](C)N5C(=O)CNC(=O)OC)n4)cc3)cc2)c[nH]1` [Example M155, methyl (2-((2S,5S)-2-(4-(4'-(2-((2S,5S)-1-(((methoxycarbonyl)amino)acetyl)-5-methyl-2-pyrrolidinyl)-1H-imidazol-4-yl)-4-biphenylyl)-1H-imidazol-2-yl)-5-methyl-1-pyrrolidinyl)-2-oxoethyl)carbamate], with 1 to 99 nM. Then `COC(=O)NC(C)(C)C(=O)N1[C@@H](C)CC[C@H]1c1ncc(-c2ccc(-c3ccc(-c4cnc([C@@H]5CC[C@H](C)N5C(=O)C(C)(C)NC(=O)OC)[nH]4)cc3)cc2)[nH]1` [Example M156, methyl (2-((2S,5S)-2-(4-(4'-(2-((2S,5S)-1-(2-((methoxycarbonyl)amino)-2-methylpropanoyl)-5-methyl-2-pyrrolidinyl)-1H-imidazol-4-yl)-4-biphenylyl)-1H-imidazol-2-yl)-5-methyl-1-pyrrolidinyl)-1,1-dimethy 1-2-oxoethyl)carbamate], with 1 to 99 nM.

In general, EC50 refers to the concentration that produces a half-maximal response.
